Like-named read-outs stand apart in the source and are kept apart here.

This passage reports IC50 results from patent publication US20250346606A1, “CAMPTOTHECIN COMPOUND, PREPARATION METHOD THEREFOR, AND APPLICATION THEREOF” (SICHUAN KELUN-BIOTECH BIOPHARMACEUTICAL CO., LTD., priority 2021, published 2025).

What all share (assay type): cell-based, Human
The test system of one assay is HT29 cells. The experiment in a line: Inhibitory effect of compounds on HT29 cell proliferation. The following applies: read-out: IC50, inhibitory activity on HT29 cell proliferation. Put shortly:
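Adherent HT29 cells incubated with diluted compounds for 72 h; viability read by luminescence (Cell Counting-Lite 2.0, 10 min). Inhibition calculated against cell-free background and vehicle-treated cells; IC50 from four-parameter curve fit.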

The next assay relates to NCI-H358 cells. The assay is described as follows: Inhibitory effect of compounds on NCI-H358 cell proliferation. Put shortly: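 Adherent NCI-H358 cells were exposed to compound for 72 h, then viability was read by luminescence (Cell Counting-Lite 2.0). Inhibition calculated from RLU relative to cell-free background and vehicle wells; IC50 from a four-parameter fit.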
The subject of the next assay is NCI-N87 cells. The experiment in a line: Inhibitory effect of compounds on NCI-N87 cell proliferation. Put shortly:
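Adherent NCI-N87 cells were exposed to compound dilutions for 72 h. Viability measured by Cell Counting-Lite 2.0 luminescence, with inhibition calculated against vehicle and cell-free background RLU. IC50 from four-parameter fit.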

The next assay has as its system Jeko-1 cells. The assay is described as follows: Inhibitory effect of compounds on Jeko-1 cell proliferation. The following applies: read-out: IC50, inhibitory activity on Jeko-1 cell proliferation. Put shortly: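 After 72 h incubation with compound, Jeko-1 cell viability was measured by Cell Counting-Lite 2.0 luminescence (10 min reaction). Inhibition was calculated relative to vehicle and cell-free background RLU, and IC50 was obtained by four-parameter curve fitting.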

Setting [1] is: Homo sapiens, NCI-H358, 72 h, read-out: IC50, inhibitory activity on NCI-H358 cell proliferation, NCI-H358 human non-small cell lung cancer cells, 72 h incubation, Cell Counting-Lite 2.0.
Setting [2] is: Homo sapiens, NCI-N87, 72 h, read-out: IC50, inhibitory activity on NCI-N87 cell proliferation, NCI-N87 human gastric cancer cells, 72 h incubation, Cell Counting-Lite 2.0.

Take `CC#C[C@@H](O)C(=O)N[C@H]1CCc2c(C)c(F)cc3nc4c(c1c23)Cn1c-4cc2c(c1=O)COC(=O)[C@]2(O)CC` [Example 1 (1-1-A), (R)—N-((1S,9S)-9-ethyl-5-fluoro-9-hydroxy-4-methyl-10,13-dioxo-2,3,9,10,13,15-hexahydro-1H,12H-benzo[de]pyrano[3′,4′:6,7]indolizino[1,2-b]quinolin-1-yl)-2-hydroxypent-3-yneamide]: the IC50 in the assay on HT29 cells (Homo sapiens, HT-29, 72 h) amounted to 1.28 nM; in the assay with NCI-H358 cells (setting [1]), 65.2 nM; in the assay with NCI-N87 cells (setting [2]), 4.58 nM; in the assay on Jeko-1 cells (Homo sapiens, JeKo-1, 72 h), 1.33 nM.

As to `CC[C@@]1(O)C(=O)OCc2c1cc1n(c2=O)Cc2c-1nc1cc(Cl)c(C)c3c1c2[C@@H](NC(=O)[C@@H](O)C1CC1)CC3` [Example 5 (2-12-A), (2S)—N-((1S,9S)-5-chloro-9-ethyl-9-hydroxy-4-methyl-10,13-dioxo-2,3,9,10,13,15-hexahydro-1H,12H-benzo[de]pyrano[3′,4′:6,7]indolizino[1,2-b]quinolin-1-yl)-2-cyclopropyl-2-hydroxyacetamide], the IC50 is 3.01 nM with HT29 cells (Homo sapiens, HT-29, 72 h); 17.6 nM in the assay on NCI-H358 cells (setting [1]); 4.91 nM in the assay with NCI-N87 cells (setting [2]).

With `CC[C@@]1(O)C(=O)OCc2c1cc1n(c2=O)Cc2c-1nc1cc(Cl)c(C)c3c1c2[C@H](NC(=O)[C@@H](O)C1CC1)CC3` [Example 5 (2-12-B), (2S)—N-((1R,9S)-5-chloro-9-ethyl-9-hydroxy-4-methyl-10,13-dioxo-2,3,9,10,13,15-hexahydro-1H,12H-benzo[de]pyrano[3′,4′:6,7]indolizino[1,2-b]quinolin-1-yl)-2-cyclopropyl-2-hydroxyacetamide], the IC50 in the assay on HT29 cells (Homo sapiens, HT-29, 72 h) worked out at 2.34 nM; in the assay with NCI-H358 cells (setting [1]) it was 15.8 nM; in the assay with NCI-N87 cells (setting [2]), 4.97 nM.

As to “(2S)—N-((1S,9S)-5-chloro-9-ethyl-9-hydroxy-4-methyl-10,13-dioxo-2,3,9,10,13,15-hexahydro-1H,12H-benzo[de]pyrano[3′,4′:6,7]indolizino[1,2-b]quinolin-1-yl)-2-hydroxypropylamine [Example 4 (2-7-A)]”, the IC50 in the assay with HT29 cells (HT29 human colon cancer cells, 72 h incubation, Cell Counting-Lite 2.0) is 1.56 nM; with NCI-H358 cells (NCI-H358 human non-small cell lung cancer cells, 72 h incubation, Cell Counting-Lite 2.0, read-out: IC50, inhibitory activity on NCI-H358 cell proliferation) it was 35.4 nM; in the assay on NCI-N87 cells (NCI-N87 human gastric cancer cells, 72 h incubation, Cell Counting-Lite 2.0, read-out: IC50, inhibitory activity on NCI-N87 cell proliferation), 3.76 nM; in the assay with Jeko-1 cells (Jeko-1 human mantle cell lymphoma cells, 72 h incubation, Cell Counting-Lite 2.0) it was 0.28 nM.
